One data set relates to SW620. Nature of the data set: cells. On the set-up: species or system SW620; SW620/Ad300; MTT cytotoxicity assay, absorbance at 570 nm. The conditions noted are these: Homo sapiens, SW-620, 72 h. On the procedure:
(§1) The MTT colorimetric assay was used to detect the sensitivity of cells to anticancer drugs. Cells were harvested with trypsin treatment. After washing with PBS, cells were resuspended in the culture media. Cells with a final concentration of 5 × 10^3 cells/well were seeded evenly into 96-well plates with 160 μL media. For the reversal experiments, SSJ compounds, verapamil, FTC or PAK104P (20 μL/well) was added followed by different concentrations of chemotherapeutic drugs (20 μL/well) into designated wells. After 72 h of incubation, 20 μL of MTT solution (5 mg/mL) was added to each well, and the plate was further incubated for 4 h, allowing viable cells to convert the yellow colored MTT into dark-blue formazan crystals. Subsequently, the medium was discarded, and 100 μL of dimethylsulfoxide (DMSO) was added into each well to dissolve the formazan crystals. The absorbance was determined at 570 nm by an OPSYS Microplate Reader from DYNEX Technologies Inc. (Chantilly, VA, USA) followed previously described protocol. The fold of resistance was calculated by dividing the IC50 (concentrations required to inhibit growth by 50%) of the MDR cells by that of the parental sensitive cells. Sipholane analogs (14 compounds) were first tested for cytotoxicity using MTT assay on colon cancer cells SW620 (drug-sensitive) and SW620/Ad300 (drug-resistant). […] Because these compounds were used at a concentration of 5 μM, which is the non-toxic concentration for all of them, they were considered to have no direct cytotoxic effect on cells. HEK293/pcDNA3.1, HEK/ABCB1, HEK/ABCG2 and HEK/ABCC1 cells were generated by transfecting the HEK293 cells with either empty pcDNA3.1 vector, ABCB1 expression vector, ABCG2 expression vector or ABCC1 expression vector respectively. HEK/ABCC1 was generated in the laboratory of Suresh V. Ambudkar (NCI, NIH, Bethesda, MD, USA). The human colon cancer cell line SW620 and doxorubicin-selected P-gp overexpressing SW620/Ad300 cell line were used for the reversal study. SW620, SW620/Ad300 and HEK/ABCG2 cells were also kindly provided by Susan Bates and Robert Robey (NCI, NIH, Bethesda, MD, USA). All the cell lines were grown as adherent monolayers in flasks with DMEM culture medium (GE Healthcare Life Sciences, Logan, UT, USA) supplemented with 10% bovine serum in a humidified incubator containing of 5% CO2 at 37 °C.

The next data set concerns T1, SW620/Ad300.
T1 construct: doxorubicin-selected, P-gp overexpressing
Put plainly: cells. More on the design: MTT cytotoxicity assay, absorbance at 570 nm. The conditions noted are these: Homo sapiens, SW620/AD300, 72 h. Here is the method:
as §1

In data set [1] the target is T2, P-glycoprotein (P-gp/ABCB1) (Homo sapiens, UniProt P08183). Put plainly: Vanadate-sensitive ATPase stimulation in recombinant human P-gp membranes; supported by [3H]-paclitaxel accumulation/efflux in cells. The format is biochemical. More on the design: Recombinant human P-gp membrane.
T2 sequence (P08183 whole entry): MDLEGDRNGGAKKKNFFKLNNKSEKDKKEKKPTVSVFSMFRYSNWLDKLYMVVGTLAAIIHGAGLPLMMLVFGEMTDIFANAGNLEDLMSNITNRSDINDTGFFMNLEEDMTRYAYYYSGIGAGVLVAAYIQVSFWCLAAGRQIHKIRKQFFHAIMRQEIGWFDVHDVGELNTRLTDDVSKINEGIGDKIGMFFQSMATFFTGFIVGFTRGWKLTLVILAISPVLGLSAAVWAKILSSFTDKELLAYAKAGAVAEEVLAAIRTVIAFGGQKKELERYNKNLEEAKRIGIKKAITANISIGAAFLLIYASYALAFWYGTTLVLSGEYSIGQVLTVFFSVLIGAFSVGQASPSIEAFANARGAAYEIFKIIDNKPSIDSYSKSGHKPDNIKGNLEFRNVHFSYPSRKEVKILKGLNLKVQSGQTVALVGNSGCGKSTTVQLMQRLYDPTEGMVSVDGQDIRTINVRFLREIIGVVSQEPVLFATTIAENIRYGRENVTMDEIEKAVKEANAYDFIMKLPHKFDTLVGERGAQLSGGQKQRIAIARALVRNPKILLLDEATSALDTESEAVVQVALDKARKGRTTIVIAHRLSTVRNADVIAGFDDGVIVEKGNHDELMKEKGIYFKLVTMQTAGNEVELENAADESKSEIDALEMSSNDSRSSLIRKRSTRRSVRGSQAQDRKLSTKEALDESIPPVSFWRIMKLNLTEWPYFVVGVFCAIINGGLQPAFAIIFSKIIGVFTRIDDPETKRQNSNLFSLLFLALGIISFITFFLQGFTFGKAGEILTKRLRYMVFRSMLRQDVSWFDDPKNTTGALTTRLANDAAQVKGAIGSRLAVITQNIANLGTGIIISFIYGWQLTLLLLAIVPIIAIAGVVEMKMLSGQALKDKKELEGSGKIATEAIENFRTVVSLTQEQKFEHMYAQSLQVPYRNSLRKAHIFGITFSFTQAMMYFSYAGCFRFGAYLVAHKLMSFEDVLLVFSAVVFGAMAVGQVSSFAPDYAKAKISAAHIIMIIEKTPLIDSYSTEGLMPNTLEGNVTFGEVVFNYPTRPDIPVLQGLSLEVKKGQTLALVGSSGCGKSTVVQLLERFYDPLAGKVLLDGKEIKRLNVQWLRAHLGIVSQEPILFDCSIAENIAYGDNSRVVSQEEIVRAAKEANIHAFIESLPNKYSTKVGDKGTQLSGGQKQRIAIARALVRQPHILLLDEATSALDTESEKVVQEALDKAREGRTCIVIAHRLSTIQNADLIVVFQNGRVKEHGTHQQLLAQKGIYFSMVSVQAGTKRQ
Data set [2] has as its target T2, P-glycoprotein (P-gp/ABCB1).

Consider 13 compounds from publication PMC4413211, “Esters of the Marine-Derived Triterpene Sipholenol A Reverse P-GP-Mediated Drug Resistance” (Marine Drugs, 2015).

A word on the IC50: it is the point on the concentration scale where inhibition reaches its midpoint. A lower IC50 goes with greater potency in that assay. As a reminder, the EC50 is the concentration at which the effect is half-maximal.

On to `CC1=CCC2C(CCC2(C)O)C(C)(C)C1CCC1C(C)(O)CCC2OC(C)(C)C(OC(=O)CCC(=O)O)CCC21C` (stereo not drawn) [SSJ25 (2)], for which the IC50 with SW620 and in the data set on SW620/Ad300 was greater than 30 µM throughout.

Turning to `CC(=O)O[C@H]1CC[C@]2(C)[C@H](CC[C@@](C)(O)[C@H]2CC[C@H]2C(C)=CC[C@H]3[C@H](CC[C@]3(C)O)C2(C)C)OC1(C)C` [SSJ26, sipholenol A-4-O-acetate], the IC50 in the data set with SW620 and in the data set on SW620/Ad300 was greater than 30 µM in each case. In addition, the EC50 in data set [1] was found to be 0.26 µM.

Take `CC(=O)OC1CCC2(C)C(CCC(C)(O)C2CCC2C(C)=CCC3C(CCC3(C)OC(C)=O)C2(C)C)OC1(C)C` (stereo not drawn) [SSJ27 (4)]: the IC50 in the data set on SW620 and in the data set with SW620/Ad300 was greater than 30 µM throughout.

On to `CC1=CCC2C1CC=C(C)C(CCC1C(C)(O)CCC3OC(C)(C)C(O)CCC31C)C2(C)C` (stereo not drawn) [SSJ28 (5)], for which the IC50 in the data set on SW620 and with SW620/Ad300 was greater than 30 µM throughout.

In the case of `CC1=CCC2C1CC=C(C)C(CCC1C(C)(O)CCC3OC(C)(C)C(OC(=O)c4ccccc4)CCC31C)C2(C)C` (stereo not drawn) [SSJ29 (6)], the IC50 in the data set on SW620 and in the data set with SW620/Ad300 was greater than 30 µM in each case.

On to `CC1=CCC2C(CCC2(C)O)C(C)(C)C1CCC1C(C)(O)CCC2OC(C)(C)C(OC(=O)c3ccccc3)CCC21C` (stereo not drawn) [SSJ31 (8)], for which the IC50 with SW620 and in the data set on SW620/Ad300 was greater than 30 µM throughout.

Regarding `CC1=CC[C@H]2[C@H](CC[C@]2(C)O)C(C)(C)[C@H]1CC[C@H]1[C@]2(C)CC[C@H](OC(=O)c3ccncc3)C(C)(C)O[C@H]2CC[C@@]1(C)O` [SSJ32, sipholenol A-4-O-isonicotinate], the IC50 in the data set with SW620 and in the data set with SW620/Ad300 was greater than 30 µM throughout. Also, the EC50 in data set [1] was 0.6 µM.

Consider `CC1=CCC2C1CC=C(C)C(CCC1C(C)(O)CCC3OC(C)(C)C(OC(=O)c4ccncc4)CCC31C)C2(C)C` (stereo not drawn) [SSJ33 (10)], for which the IC50 in the data set with SW620 and in the data set on SW620/Ad300 was greater than 30 µM each time.

Regarding `CC1=CCC2C1CC=C(C)C(CCC1C(C)(O)CCC3OC(C)(C)C(OC(=O)CCC(=O)O)CCC31C)C2(C)C` (stereo not drawn) [SSJ34 (11)], the IC50 in the data set with SW620 and in the data set on SW620/Ad300 was greater than 30 µM in each case.

As for `CC(=O)OC1CCC2(C)C(CCC(C)(O)C2CCC2C(C)=CCC3C(C)=CCC3C2(C)C)OC1(C)C` (stereo not drawn) [SSJ35 (12)], the IC50 with SW620 and with SW620/Ad300 was greater than 30 µM each time.

Regarding `CC1=CCC2C(CCC2(C)O)C(C)(C)C1CCC1C(C)(O)CCC2OC(C)(C)C(OCc3ccccc3)CCC21C` (stereo not drawn) [SSJ36 (13)], the IC50 in the data set on SW620 and with SW620/Ad300 was greater than 30 µM throughout.

Regarding `CC1=CCC2C1CC=C(C)C(CCC1C(C)(O)CCC3OC(C)(C)C(OCc4ccccc4)CCC31C)C2(C)C` (stereo not drawn) [SSJ37 (14)], the IC50 in the data set with SW620 and in the data set with SW620/Ad300 was greater than 30 µM each time.

Regarding `CC(=O)O[C@H]1C(=O)[C@@]2(C)[C@H]([C@H](OC(=O)c3ccccc3)[C@]3(O)C[C@H](OC(=O)[C@H](O)[C@@H](NC(=O)c4ccccc4)c4ccccc4)C(C)=C1C3(C)C)[C@]1(OC(C)=O)CO[C@@H]1C[C@@H]2O` [paclitaxel], the “[3H]-paclitaxel accumulation and efflux, resistant versus parental cells” value in data set [2] is recorded as “while the paclitaxel level significantly decreased in SW620/Ad300 drug-resistant cells, the levels of paclitaxel remained stable in parental SW620”.
